Measured values: patent US20070197453A1, “Compositions and methods for treatment of disorders of protein aggregation” (priority 2006, published 2007)
“Also recorded” adds a separate entry of the source.

Experiments:
TgCRND8 mice [1] = test: Morris Water Maze spatial reference memory test; assay type: in vivo, mouse; conditions: for spatial memory / cognition compared to untreated TgCRND8 mice / spatial memory compared to non-Tg littermates: one month treatment from 5 months of age; for effect on non-Tg littermate performance: one month treatment
Procedure: (§1) Behavioural tests: Morris Water Maze testing was performed as previously described. After non-spatial pre-training, mice underwent place discrimination training for 5 days with 4-trials per day, followed by a cued visible platform to rule out general motivational, learning deficits and motor problems, and a probe trial to evaluate memory. […] Open field test for motor activity was preformed as described previously. Duration of walking, pausing and grooming were analyzed as indices of spontaneous locomotor activity. Sensorimotor function was examined with an Economex™ accelerating rotarod (Columbus Instruments, Columbus, Ohio), as described elsewhere. The rod was set to accelerate at a rate of 0.2 r.p.m./s, from an initial, constant speed of 5 r.p.m. Latency to fall was recorded in four daily trials, conducted at 30 min intervals. All mice were trained for seven days before testing. The test day performance score for each animal was obtained by summing its latency to fall over the four trials
Behavioural tests: Behavioural analyses were performed using the Morris Water Maze test (13, 14). After pre-spatial training, mice underwent place discrimination training for 5 days with 4 trials per day, followed by a cued visible platform to rule out general motivational, learning deficits and motor problems. […] Open field test for motor activity was performed as described previously. Duration of walking, pausing, rearing and grooming were analyzed as indices of spontaneous locomotor activity.

neurons = conditions: cited from earlier work
Aβ42 [2] = molecular target: T1, Aβ42 (Homo sapiens, UniProt P05067); test: Cerebral Aβ content: brain Aβ42 (ELISA kit); assay type: in vivo, mouse; parameters: from tissue; host or cells: hemi-brain homogenate of TgCRND8 transgenic mice; conditions: TgCRND8 mice with pre-existing disease; 28 day treatment from 5 months of age
Procedure: (§2) Plasma and Cerebral Aβ Content. Hemi-brain samples were homogenized in a buffered sucrose solution, followed by either 0.4% diethylamine/100 mM NaCl for soluble Aβ levels or cold formic acid for the isolation of total Aβ. After neutralization, the samples were diluted and analyzed for Aβ40 and Aβ42 using commercially available kits (BIOSOURCE International). Each hemisphere was analyzed in triplicate and the mean values±SEM reported. Western blot analyses were performed on all fractions using urea gels for Aβ species analyses. Aβ was detected using 6E10 (BIOSOURCE International) and Enhanced Chemiluminenscence (Amersham).
(§3) Cerebral Aβ Content. Hemi-brain samples were homogenized in a buffered sucrose solution, followed by either 0.4% diethylamine/100 mM NaCl for soluble Aβ levels or cold formic acid for the isolation of total Aβ [22]. After neutralization the samples were diluted and analyzed for Aβ40 and Aβ42 using commercially available kits (BIOSOURCE International). Each hemisphere was analyzed in triplicate with the mean±SEM reported. Plasma was diluted and run directly on the ELISA.
Target sequence in this assay (P05067 672-713 limits assumed): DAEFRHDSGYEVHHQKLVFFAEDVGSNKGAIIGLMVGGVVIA

Aβ40 = molecular target: T2, Aβ40 (Homo sapiens, UniProt P05067); test: Cerebral Aβ content: brain Aβ40 (ELISA kit); assay type: in vivo, mouse; conditions: TgCRND8 mice with pre-existing disease; 28 day treatment from 5 months of age
T2 construct: from tissue; host or cells: hemi-brain homogenate of TgCRND8 transgenic mice
Procedure: as §2, §3

TgCRND8 mice [3] = test: Survival census (Kaplan-Meier); assay type: in vivo, mouse; conditions: for Kaplan Meier cumulative survival: compared to untreated TgCRND8 mice
Procedure: (§4) Survival Census: The probability of survival was assessed by the Kaplan-Meier technique, computing the probability of survival at every occurrence of death, thus making it suitable for small sample sizes. For the analyses of survival, 35 mice were used for each treatment group. The Tarone-Ware test was used to assess effects of treatments.
as §4, with “technique” for “technique,”, “30” for “35”

Aβ42 [4] = molecular target: T1, Aβ42; test: Plasma Aβ42 levels; assay type: in vivo, mouse; parameters: from tissue; host or cells: plasma of TgCRND8 transgenic mice; conditions: TgCRND8 mice following 28 days of therapy at five months of age
Procedure: as §2, §3
Target sequence in this assay (P05067 672-713): as the sequence (P05067 672-713 limits assumed) above

TgCRND8 mice [5] = test: Gliosis quantitation (GFAP astrocytes, CD68 microglia); assay type: in vivo, mouse
Procedure: Gliosis Quantitation. Five randomly selected, evenly spaced, sagittal sections were collected from paraformaldehyde-fixed and frozen hemispheres of treated and control mice. Sections were immunolabelled for astrocytes with anti-rat GFAP IgG2a (Dako; diluted 1:50) and for microglia with anti-rat CD68 IgG2b (Dako; 1:50). Digital images were captured using a Coolsnap digital camera (Photometrics, Tuscon, Ariz.) mounted to a Zeiss, Axioscope 2 Plus microscope. Images were analysed using Openlab 3.08 imaging software (Improvision, Lexington Mass.).

TgCRND8 mice [6] = test: Cerebral amyloid plaque burden (anti-Aβ immunostaining, image analysis); assay type: in vivo, mouse
Procedure: Cerebral amyloid burden. Brains were removed and one hemisphere was fixed in 4% paraformaldehyde and embedded in paraffin wax in the mid sagittal plane. To generate sets of systematic uniform random sections, 5 μm serial sections were collected across the entire hemisphere. Sets of sections at 50 μm intervals were used for analyses (10-14 sections/set). Plaques were identified after antigen retrieval with formic acid, and incubation with primary anti-Aβ antibody (Dako M-0872), followed by secondary antibody (Dako StreptABCcomplex/horseradish kit). End products were visualized with DAB and were counter-stained with luxol fast blue. Amyloid plaque burden was assessed with Leco IA-3001 image analysis software interfaced with Leica microscope and Hitachi KP-M1U CCD video camera. Openlab imaging software (Improvision, Lexington, Mass.) was then used to convert micrographs to binary images for plaque number and plaque area determinations. Vascular amyloid burden was defined as amyloid originating from or surrounding blood vessels and was analysed similarly.

Pilot in vivo studies = conditions: data not shown
Aβ = conditions: reference [11]; cited from earlier work
[7] = 6-18 grams/day/adult or 86-257 mg/Kg/day; reference [21]; cited from earlier work
TgCRND8 mice [8] = test: Open field test for motor activity; assay type: in vivo, mouse; conditions: TgCRND8 mice and non-Tg littermates; drinking water 10 mg/ml, extended treatment
Procedure: as §1
(§5) Behavioural tests: Behavioural analyses were performed using the Morris Water Maze test (13, 14). […] Duration of walking, pausing, rearing and grooming were analyzed as indices of spontaneous locomotor activity.

TgCRND8 mice [9] = test: Synaptophysin quantification by western blotting (hippocampus); assay type: in vivo, mouse
Procedure: Synaptophysin protein levels were determined in treated and control mice by western blotting. Sections were immunoblotted for synaptophysin with anti-synaptophysin IgG (1:40; Roche, Laval, PQ) or GAPDH IgG (1: 10,000; Biodesign International) as a loading control. Films were scanned before analyses using NIH Image analyses combined with densitometry. Synaptophysin values were normalized to the loading control for each sample. Statistical analyses were determined using factorial ANOVA with Fishers PLSD as a post-hoc test.

[10] = mouse, in vivo
Procedure: Mice. […] This initial dosage was chosen based upon the dosage of myo-cyclohexanehexol (6-18 grams/day/adult or 86-257 mg/Kg/day) that is typically administered to human patients for various psychiatric disorders. […] A cohort of animals (n=10 mice per treatment arm) entered the study at five months of age, and outcomes were then analyzed after one month of treatment. The body weight, coat characteristics and in cage behaviour were monitored. Mannitol was used as a negative control for potential alterations in caloric intake. All experiments were performed according to the Canadian Council on Animal Care guidelines.
Mice. […] Cohorts of animals entered the study at 5 months of age and outcomes were analyzed after one month. Alternatively, cohorts of animals entered the prophylactic study at 6 weeks of age and outcome measures were analysed at 6-months of age. The body weight, coat characteristics and in cage behaviour was monitored. All experiments were performed according to the Canadian Council on Animal Care guidelines.

TgCRND8 mice [11] = test: Cued visible platform test (Morris Water Maze); assay type: in vivo, mouse; conditions: one month treatment from 5 months of age
Procedure: as §1, §5

[12] = Hematology and serum biochemical analyses; assay type: in vivo, mouse
Excerpt: Blood was collected prior to sacrifice and samples were sent to VITA-TECH laboratories (Markham, ON, Canada) for analyses. Reference values were obtained from Zhou and Hansson.

[13] = six month old TgCRND8 mice, 28 days of oral treatment beginning at five months of age
[14] = TgCRND8 mice, 4-month Prophylactic (oral from 6 weeks to 4 months of age)
[15] = TgCRND8 mice, 6-month Prophylactic (oral from 6 weeks to 6 months of age)
[16] = TgCRND8 mice, oral treatment for 28 days (1 month) from 5 months of age, analysed at 6 months
[17] = drinking water 10 mg/ml, listed as Epi-2-inosose
[18] = drinking water 10 mg/ml, prophylactic from 6 weeks until six months of age

T2 sequence (P05067 672-711): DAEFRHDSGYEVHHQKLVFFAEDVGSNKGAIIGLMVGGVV

Compound: 1,2,3,4,5/6-(epi-)cyclohexanehexol [epi-cyclohexanehexol]
- Non-Tg littermate behaviour under treatment (TgCRND8 mice [1]; non-Tg littermates, Morris Water Maze): not affected
- cognition compared to non-Tg mice (TgCRND8 mice [1]; prophylactic treatment, four months of age): significantly different from treated and untreated non-Tg mice
- cognition compared to non-Tg littermates (TgCRND8 mice [1]; prophylactic treatment, six months of age): approached that of non-Tg littermates
- spatial reference memory performance compared to non-Tg littermates (TgCRND8 mice [1]; [13]): significantly poorer than the performance of their non-Tg littermates; also recorded: remained impaired with respect to non-Tg littermates
- spatial reference memory performance compared to untreated TgCRND8 littermates (TgCRND8 mice [1]; [13]): not significantly different from that of untreated TgCRND8 littermates
- activity against synthetic Aβ42 neurotoxicity (neurons): protects neurons from synthetic Aβ42 cytotoxicity
- effect on brain Aβ42 levels (Aβ42 [2]): no significant impact
- effect on brain Aβ40 levels (Aβ40): no significant impact
- Kaplan Meier cumulative survival (TgCRND8 mice [3]): did not significantly improve survival
- Plasma Aβ42 levels (Aβ42 [4]): 1079 ± 79 pg/mL
- percent brain area covered with microgliosis (TgCRND8 mice [5]; TgCRND8 mice): decreased the percent brain area covered with microgliosis
- astrogliosis / gliosis, anti-GFAP immunostaining (TgCRND8 mice [5]; TgCRND8 mice at six months of age): decrease in astrogliosis
- percent brain area covered in astrogliosis (TgCRND8 mice [5]; TgCRND8 mice, 4- and 6-months of age): decreased the percent brain area covered in astrogliosis at both 4- and 6-months of age
- amyloid (plaque) burden, immunostaining (TgCRND8 mice [6]; TgCRND8 mice at six months of age, hippocampus and cerebral cortex): modest effect on amyloid burden
- plaque burden (percent area of the brain covered with plaques, plaque number) (TgCRND8 mice [6]; TgCRND8 mice with pre-existing disease, one month treatment from 5 months of age): no significant impact
- Mean Plaque Size (TgCRND8 mice [6]; [14]): 95 ± 43 μm^2
- Total Plaque Area (TgCRND8 mice [6]; [14]): 65042 ± 5199 μm^2
- Mean Plaque Size (TgCRND8 mice [6]; [15]): 370 ± 9 μm^2
- Total Plaque Area (TgCRND8 mice [6]; [15]): 380456 ± 13498 μm^2
- Mean Plaque Size (TgCRND8 mice [6]; [16]): 346 ± 6 μm^2
- Total Plaque Area (TgCRND8 mice [6]; [16]): 459706 ± 49966 μm^2
- Total Plaque Count (TgCRND8 mice [6]; TgCRND8 mice, oral treatment for 28 days from 5 months of age, analysed at 6 months): 1342 ± 114

Compound: O[C@H]1[C@H](O)[C@@H](O)[C@H](O)[C@@H](O)[C@H]1O [myo-cyclohexanehexol, 1,2,3,5/4,6-(myo-)cyclohexanehexol]
- benefit in pilot in vivo studies (Pilot in vivo studies): no significant benefit
- effectiveness in prior in vitro studies (Aβ): only weakly effective
- toxicity [7]: no toxicity in humans or animals

Compound: epi-2-inosose
- spatial memory / cognition compared to untreated TgCRND8 mice (TgCRND8 mice [1]; drinking water 10 mg/ml): significantly better than untreated TgCRND8 littermates
- spatial memory compared to non-Tg littermates (TgCRND8 mice [1]; drinking water 10 mg/ml): not significantly different from non-Tg littermates
- spatial memory / cognition compared to untreated TgCRND8 mice (TgCRND8 mice [1]; [17]): significantly improved cognition
- spatial memory compared to non-Tg littermates (TgCRND8 mice [1]; [17]): not significantly different from treated nTg littermates
- spatial learning compared to non-Tg littermates (TgCRND8 mice [1]; [18]): approached that of non-Tg littermates
- spatial learning compared to untreated TgCRND8 littermates (TgCRND8 mice [1]; [18]): better cognitive function compared to their untreated TgCRND8 littermates
- spatial learning compared to non-Tg littermates (TgCRND8 mice [1]; drinking water 10 mg/ml, prophylactic from 6 weeks until six months of age, listed as Epi-2-inosose): different from non-Tg littermates on all days of testing
- effect on non-Tg littermate performance (TgCRND8 mice [1]; non-Tg littermates, drinking water 10 mg/ml): no effect on non-Tg littermate performance
- effect on non-Tg littermate performance (TgCRND8 mice [1]; non-Tg littermates, drinking water 10 mg/ml, listed as Epi-2-inosose): no effect on non-Tg littermate behaviour
- effect on cognitive performance of non-Tg mice (TgCRND8 mice [1]; non-Tg mice, prophylactic administration): no effect on the cognitive performance of non-Tg mice
- open field test: rearing, grooming, walking, pausing (activity levels) (TgCRND8 mice [8]): indistinguishable; also recorded: does not affect activity levels
- Synaptophysin reactivity / levels (TgCRND8 mice [9]; 6 month prophylactic and treatment paradigms): significantly increased
- increase in synaptophysin reactivity in the hippocampus (TgCRND8 mice [9]; delayed treatment study): 15%
- increase in synaptophysin reactivity in the hippocampus (TgCRND8 mice [9]; prophylactic study): 33%
- Kaplan Meier cumulative survival (TgCRND8 mice [3]; drinking water 10 mg/ml): increased survival
- improvement of survival (TgCRND8 mice [3]; prophylactic treatment to six months of age, vs untreated): 50%
- survival, weight, fur condition, cage behaviour [10]: no effect on survival, weight, fur condition, or cage behaviour of wild type mice
- Visual acuity (cued version of the Morris Water Maze test) (TgCRND8 mice [11]): not altered by treatment
- serum biochemistry: organ function ([12]; Tg and non-Tg mice treated): normal kidney, heart, liver and pancreas function
- ALP ([12]; serum, Treated TgCRND8): 73 ± 5 U/L
- ALT ([12]; serum, Treated TgCRND8): 30 ± 3 U/L
- Albumin ([12]; serum, Treated TgCRND8): 32 ± 2 g/L
- Bilirubin ([12]; serum, Treated TgCRND8): 1.8 ± 0.15 µmol/L
- Creatine ([12]; serum, Treated TgCRND8): 15.9 ± 2 µmol/L
- Globulin ([12]; serum, Treated TgCRND8): 18 ± 2 g/L
- Glucose ([12]; serum, Treated TgCRND8): 12 ± 0.6 mmol/L
- Total Protein ([12]; serum, Treated TgCRND8): 49 ± 0.7 g/L
- Urea ([12]; serum, Treated TgCRND8): 8.6 ± 0.4 mmol/L
